Measured values: US20250345390A1, “COMBINATION THERAPIES” (Gilead Sciences, Inc., priority 2024, published 2025)

Tested on: HDV
Assay: HBV/HDV co-infected viral spread assay in primary human hepatocytes (PHH)
Assay type: cell-based, hepatitis D virus (HDV) in primary human hepatocytes
Settings: primary infection; lonafarnib 5 μM to 6.9 nM for 9 days; BLV 0.8 nM where present
Protocol: Cryopreserved PHH were thawed and cells were recovered by centrifugation at 100×g (Beckman Coulter, Allegra X-14R) through cryopreserved hepatocyte recovery medium (Thermo Fisher Scientific; CM7500) and plated in collagen coated 96-well plates (Thermo Fisher Scientific; CM1096) at a density of 70,000 live cells per well. Cells were plated in William's E medium (Thermo Fisher Scientific; A1217601) supplemented with 3.6% hepatocyte thawing and plating supplement (Thermo Fisher Scientific, A15563), 5% fetal bovine serum (Thermo Fisher Scientific; 16000-036), 1 μM dexamethasone (Thermo Fisher Scientific, A15563), and 0.2% Torpedo antibiotic mix (BioreclamationIVT; Z990008). […]
Vehicle and compound containing wells were normalized such that the final concentration of DMSO was 1.5% (v/v). The medium was collected and extracellular HBsAg was measured by an electrochemiluminescence assay (MSD) according to the manufacturer's instructions (Meso Scale Diagnostics, Rockville, MD). […] Levels of HDV RNA were calculated as fold change relative to DMSO treated sample using the 2-ΔΔCt method (Livak K J, Schmittgen T D. Analysis of relative gene expression data using real-time quantitative PCR and the 2(-Delta Delta C(T)) Method. Methods 2001).

## NC(=O)N1CCC(CC(=O)N2CCC([C@H]3c4ncc(Br)cc4CCc4cc(Cl)cc(Br)c43)CC2)CC1 [lonafarnib, (R)-4-(2-(4-(3,10-dibromo-8-chloro-6,11-dihydro-5H-benzo[5,6]cyclohepta[1,2-b]pyridin-11-yl)piperidin-1-yl)-2-oxoethyl)piperidine-1-carboxamide]
  intracellular HDV RNA (qRT-PCR, fold change relative to DMSO): induced dose-dependent intracellular accumulation of HDV RNA
